Reference: ChEMBL document CHEMBL1687706, “Inhibition of human immunodeficiency virus type 1 replication in human cells by Debio-025, a novel cyclophilin binding agent” (Antimicrob Agents Chemother, 2008)
Calls of active or inactive are those of the source. The calls are words filed in the database; no cut-off is given here.

How the values were obtained:
[1] = system: Human immunodeficiency virus 1; test: Antiviral activity against HIV1 subtype F 93BR020 infected in human PBMC assessed as inhibition of viral replication by ELISA; assay type: functional, organism-based; conditions: Human immunodeficiency virus 1, subtype F 93BR020
[2] = system: Rattus norvegicus; test: Immunosuppressive activity in Sprague-Dawley rat […] model assessed as percent T lymphocytes at 50 mg/kg, po administered once daily for 28 days by flow cytometry; assay type: functional
[3] = system: Human immunodeficiency virus 1; test: Antiviral activity against HIV1 subtype G Jv1083 infected in human PBMC assessed as inhibition of viral replication by ELISA; assay type: functional, organism-based; conditions: Human immunodeficiency virus 1, subtype G Jv1083
[4] = system: Rattus norvegicus; test: Immunosuppressive activity in Sprague-Dawley rat KHL model assessed as percent cytotoxic T cells at 10 mg/kg, po administered once daily for 28 days by flow cytometry; assay type: functional, T-cell
[5] = system: Human betaherpesvirus 5; test: Antiviral activity against Human cytomegalovirus AD169 infected in human embryonic lung cells assessed as reduction in viral yield; assay type: functional, organism-based; conditions: Human betaherpesvirus 5, AD169, lung
[6] = system: Human immunodeficiency virus 1; test: Antiviral activity against HIV1 subtype B WEJO infected in human PBMC assessed as inhibition of viral replication by ELISA; assay type: functional, organism-based; conditions: Human immunodeficiency virus 1, subtype B WEJO
[7] = system: Human immunodeficiency virus 1; test: Antiviral activity against HIV1 subtype D 92UG046 infected in human PBMC assessed as inhibition of viral replication by ELISA; assay type: functional, organism-based; conditions: Human immunodeficiency virus 1, subtype D 92UG046
[8] = Cytotoxicity against CRFK; parameters: species or system Felis catus; conditions: cat, CRFK cells; read-out: TC50 (the source's name)
[9] = system: Human immunodeficiency virus 1; test: Antiviral activity against HIV-1 NL4-3 infected in human TZB cells assessed as inhibition of accumulation of early viral transcripts at 0.5 to 2.5 uM by RT-PCR; assay type: functional, organism-based
[10] = Antiviral activity against HPV-18 infected in human HeLa cells assessed as inhibition of viral replication after 7 days; assay type: functional; conditions: human papillomavirus 18, HeLa, 168 h; read-out: TC50 (the source's name)
[11] = Antiviral activity against HPV-18 infected in human HeLa cells assessed as inhibition of viral replication after 3 days; assay type: functional, cell-based; conditions: human papillomavirus 18, HeLa, 72 h; read-out: TC50 (the source's name)
[12] = system: Influenza B virus; test: Antiviral activity against influenza B virus infected in MDCK cells assessed as inhibition of viral replication; assay type: functional, organism-based
[13] = Cytotoxicity against human HepAD38 cells; assay type: cell-based; conditions: read-out: TC50 (the source's name)
[14] = system: Human immunodeficiency virus 1; test: Antiviral activity against HIV1 subtype B Ba-L infected in human PBMC assessed as inhibition of viral replication by ELISA; assay type: functional, organism-based; conditions: Human immunodeficiency virus 1, subtype B Ba-L
[15] = system: Human alphaherpesvirus 2; test: Antiviral activity against Herpes simplex virus 2 196 infected in human embryonic lung cells assessed as inhibition of viral replication; assay type: functional, organism-based; conditions: Human alphaherpesvirus 2, 196, lung
[16] = system: Rattus norvegicus; test: Immunosuppressive activity in Sprague-Dawley rat […] model assessed as percent T lymphocytes at 25 mg/kg, po administered once daily for 28 days by flow cytometry; assay type: functional
[17] = system: Coxsackievirus; test: Antiviral activity against Coxsackie B3 infected in african green monkey Vero cells assessed as inhibition of viral replication; assay type: functional, organism-based
[18] = system: Rattus norvegicus; test: Immunosuppressive activity in Sprague-Dawley rat […] model assessed as IgM level at 25 mg/kg, po administered once daily for 28 days by ELISA; assay type: functional
[19] = system: Human alphaherpesvirus 3; test: Antiviral activity against VZV OKA infected in human embryonic lung cells assessed as inhibition of; assay type: functional, organism-based; conditions: Human alphaherpesvirus 3, OKA
[20] = system: Influenza A virus; test: Antiviral activity against Influenza A virus H1N1 infected in MDCK cells assessed as inhibition of viral replication; assay type: functional, organism-based
[21] = system: Human immunodeficiency virus 1; test: microbe, parasite or virus in culture; conditions: Human immunodeficiency virus 1, SF2
[22] = system: Human immunodeficiency virus 1; test: Antiviral activity against HIV1 subtype C 92BR025 infected in human PBMC assessed as inhibition of viral replication by ELISA; assay type: functional, organism-based; conditions: Human immunodeficiency virus 1, subtype C 92BR025
[23] = system: Human alphaherpesvirus 1; test: Antiviral activity against Herpes simplex virus 1 KOS infected in human embryonic lung cells assessed as inhibition of viral replication; assay type: functional, organism-based; conditions: Human alphaherpesvirus 1, KOS
[24] = system: Human immunodeficiency virus 1; test: Antiviral activity against APV, ATV, IDV, LPV, NFV, RTV, SQV, AZT, ddI, 3TC, d4T-resistant HIV-1 MDR1385 infected in human PBMC assessed as inhibition of viral replication by ELISA; assay type: functional, organism-based; conditions: Human immunodeficiency virus 1, MDR1385
[25] = system: PBMC; test: Cytotoxicity against human PBMC at 0.83 uM by MTT assay; assay type: cell-based
[26] = system: Rattus norvegicus; test: Immunosuppressive activity in Sprague-Dawley rat […] model assessed as IgM level at 10 mg/kg, po administered once daily for 28 days by ELISA; assay type: functional
[27] = Antiviral activity against HPV-33 infected in CK1 cells assessed as inhibition of viral replication after 7 days; assay type: functional, Human papillomavirus type 33; conditions: human papillomavirus 33, CK1, 168 h; read-out: TC50 (the source's name)
[28] = system: Jurkat; test: Immunosuppressive activity in human Jurkat cells assessed as inhibition of PHA-phorbol myristate acetate induced beta-galactosidase activity at 21.5 uM; assay type: functional, cell-based
[29] = system: Human immunodeficiency virus 1; test: Antiviral activity against HIV1 subtype B JR-CSF infected in human PBMC assessed as inhibition of viral replication by ELISA; assay type: functional; conditions: Human immunodeficiency virus 1, JRCSF ISOLATE
[30] = system: Human immunodeficiency virus 1; test: Antiviral activity against HIV-1 NL4-3 cells infected in human TZB cells assessed as degradation of cDNA at 0.5 to 2.5 uM after 6 hrs postinfection by RT-PCR; assay type: functional, organism-based
[31] = system: Human immunodeficiency virus 1; test: Antiviral activity against HIV-1 NL4-3 infected in human TZB cells assessed as inhibition of accumulation of late viral transcripts at 0.5 to 2.5 uM by RT-PCR; assay type: functional, organism-based
[32] = system: Rattus norvegicus; test: Immunosuppressive activity in Sprague-Dawley rat KHL model assessed as percent T-helper cells at 50 mg/kg, po administered once daily for 28 days by flow cytometry; assay type: functional
[33] = system: Human immunodeficiency virus 1; test: Antiviral activity against HIV1 subtype A 92RW016 infected in human PBMC assessed as inhibition of viral replication by ELISA; assay type: functional, organism-based; conditions: Human immunodeficiency virus 1, subtype A 92RW016
[34] = system: Human immunodeficiency virus 1; test: microbe, parasite or virus in culture; conditions: Human immunodeficiency virus 1, 3B, MT4
[35] = system: Human immunodeficiency virus 1; test: Antiviral activity against LPV, APV, ATV, IDV, NFV, RTV, SQV-resistant HIV-1 52-52 infected in human PBMC assessed as inhibition of viral replication by ELISA; assay type: functional, organism-based; conditions: Human immunodeficiency virus 1, 52-52
[36] = system: Human alphaherpesvirus 2; test: Antiviral activity against Herpes simplex virus 2 G infected in human embryonic lung cells assessed as inhibition of viral replication; assay type: functional, organism-based; conditions: Human alphaherpesvirus 2, strain G
[37] = system: Rattus norvegicus; test: Immunosuppressive activity in Sprague-Dawley rat […] model assessed as IgM level at 50 mg/kg, po administered once daily for 28 days by ELISA; assay type: functional
[38] = system: Human immunodeficiency virus 1; test: Antiviral activity against HIV1 subtype B SLKA infected in human PBMC assessed as inhibition of viral replication by ELISA; assay type: functional, organism-based; conditions: Human immunodeficiency virus 1, subtype B SLKA

C/C=C/C[C@@H](C)[C@@H](O)[C@H]1C(=O)N[C@@H](CC)C(=O)N(C)[C@H](C)C(=O)N(CC)[C@@H](C(C)C)C(=O)N[C@@H](C(C)C)C(=O)N(C)[C@@H](CC(C)C)C(=O)N[C@@H](C)C(=O)N[C@H](C)C(=O)N(C)[C@@H](CC(C)C)C(=O)N(C)[C@@H](CC(C)C)C(=O)N(C)[C@@H](C(C)C)C(=O)N1C [ALISPORIVIR]
IC50 [1]: 6.25 µM
Activity [2]: 50%
IC50 [3]: 5.53 µM
Activity [4]: 17.6%
IC50 [5]: 8.9 µM
IC50 [6]: 0.015 µM
IC50 [7]: 0.01 µM
CC50 [8]: 10.6 µM
inhibition [9]: inactive
CC50 [10]: 3.3 µM
CC50 [11]: 6.5 µM
IC50 [12]: > 9.9 µM
CC50 [13]: 16.4 µM
IC50 [14]: 3.53 µM
IC50 [15]: > 25 µM
Activity [16]: 53.4%
IC50 [17]: > 25 µM
deltaA [18]: 0.78
IC50 [19]: 2.5 µM
IC50 [20]: > 9.9 µM
IC50 [21]: 0.063 µM
IC50 [22]: 0.015 µM
IC50 [23]: > 25 µM
IC50 [24]: 0.058 µM
Activity [25]: Non-toxic
deltaA [26]: 0.78
CC50 [27]: 0.6 µM
inhibition [28]: Active
IC50 [29]: 0.015 µM
Activity [30]: Active
inhibition [31]: Active
Activity [32]: 32.8%
IC50 [33]: 0.008 µM
IC50 [34]: 0.099 µM
IC50 [35]: 3.12 µM
IC50 [36]: > 25 µM
deltaA [37]: 0.67
IC50 [38]: 0.025 µM
